{"source": "patent US20150173371A1", "about": "(Dow AgroSciences LLC, priority 2013, published 2015)", "key": {"[1]": {"test_system": "Euphorbia hirta (garden spurge, EPHHI)", "experiment": "Field trial, % visual weed control", "assay_type": "in vivo", "source_text": "(§1) Boom sizes varied from 2-3 m in width."}, "[2]": {"test_system": "Tridax procumbens L (tridax daisy, TRQPR)", "experiment": "Field trial, % visual weed control", "assay_type": "in vivo", "conditions": "16DAA, 800 g ae/ha alone", "source_text": "as §1"}, "[3]": {"test_system": "Amaranthus palmeri (Palmer pigweed, AMAPA)", "experiment": "Field trial, % visual weed control", "assay_type": "in vivo", "source_text": "as §1"}, "[4]": {"test_system": "Spermacoce latifolia (broadleaf buttonweed, BOILF)", "experiment": "Field trial, % visual weed control", "assay_type": "in vivo", "source_text": "as §1"}, "[5]": {"test_system": "Commelina benghalensis (hairy wandering Jew, COMBE)", "experiment": "Field trial, % visual weed control", "assay_type": "in vivo", "conditions": "800 g ae/ha alone", "source_text": "as §1"}, "[6]": {"test_system": "Ipomoea species (morningglory, IPOSS)", "experiment": "Field trial, % visual weed control", "assay_type": "in vivo", "conditions": "8DAA, 840 g ae/ha alone", "source_text": "as §1"}, "[7]": {"test_system": "Euphorbia heterophylla (wild poinsettia, EPHHL)", "experiment": "Field trial, % visual weed control", "assay_type": "in vivo", "conditions": "28DAA, 615 g ae/ha alone", "source_text": "as §1"}, "[8]": {"test_system": "Brachiaria decumbens (Surinam grass, BRADC)", "experiment": "Field trial, % visual weed control", "assay_type": "in vivo", "conditions": "12DAA, 720 g ae/ha alone", "source_text": "as §1"}, "[9]": {"test_system": "Ipomoea grandifolia (Corda-de-viola, IAQGR)", "experiment": "Field trial, % visual weed control", "assay_type": "in vivo", "conditions": "17DAA, 800 g ae/ha alone", "source_text": "as §1"}, "[10]": {"test_system": "Raphanus raphanistrim (wild radish, RAPRA)", "experiment": "Field trial, % visual weed control", "assay_type": "in vivo", "conditions": "6DAA, 800 g ae/ha alone", "source_text": "as §1"}, "[11]": {"test_system": "Glycine max (soybean, glyphosate tolerant, GLXMA)", "experiment": "Field trial, % visual weed control", "assay_type": "in vivo", "source_text": "as §1"}, "[12]": {"test_system": "Jacquemontia tamnifolia (smallflower morningglory, IAQTA)", "experiment": "Field trial, % visual weed control", "assay_type": "in vivo", "conditions": "7DAA, 1120 g ae/ha alone", "source_text": "as §1"}, "[13]": {"test_system": "Sesbania exaltata (hemp sesbania, SEBEX)", "experiment": "Field trial, % visual weed control", "assay_type": "in vivo", "conditions": "8DAA, 840 g ae/ha alone", "source_text": "as §1"}, "[14]": {"test_system": "Conyza canadensis (horseweed, ERICA)", "conditions": "field trial", "procedure": "(§2) Field trials were conducted under normal field conditions in multiple states in the United States, including but not limited to Alabama, Mississipi, South Carolina and Tennessee; and in Brazil, including but not limited to the states of Goias, Mato Grosso, Parana, Rio Grande do Sul, and Sao Paulo. Trials were established as RCB (randomized complete block) design, with 3-4 replicates per treatment, and plot sizes varying from 2-3 meters (m) wide by 4-8 m long. Treatments were applied with small plot backpack sprayers, using pressurized carbon dioxide (CO2) as propellant. Pressure varied from 22-40 PSI, with spray tips typically of a Flat Fan type applying water diluent at 150 L/ha. Boom sizes varied from 2-3 m in width. Treatments were applied to soybean, cotton or fallow crop land. Weed sizes varied, but all treatments were applied as post-emergence treatments to weeds from 2 leaf to 2 tiller growth stages varying from 2-15 inches (in) in height. No additional adjuvant was mixed with the treatments applied in the field\n(§3) The treated plots and control plots were rated blind at various intervals after application.\n(§4) Colby's equation was used to determine the herbicidal effects expected from the mixtures (Colby, S. R. Calculation of the synergistic and antagonistic response of herbicide combinations. Weeds 1967 15, 20-22). A t-test (alpha=0.05) between Colby predictions and observed combinations was used to test for significant differences indicating synergy or antagonism.\n(§5) The following equation was used to calculate the expected activity of mixtures containing two active ingredients, A and B:\n(§6) Expected=A+B−(A×B/100) • A=observed efficacy of active ingredient A at the same concentration as used in the mixture; • B=observed efficacy of active ingredient B at the same concentration as used in the mixture."}, "[15]": {"test_system": "Conyza bonariensis (hairy fleabane, ERIBO)", "conditions": "field trial", "procedure": "as §2, §3, §4, §5, §6"}, "[16]": {"test_system": "Elymus repens (quackgrass, AGRRE)", "experiment": "Greenhouse trial, % visual weed control", "assay_type": "in vivo", "conditions": "14DAA, 210 g ae/ha alone", "procedure": "(§7) Greenhouse trials were conducted under controlled environment greenhouse conditions, with plants grown in pots with Metromix soil and bottom watered. Treatments were applied with 3 replicates per treatment, using a track sprayer with 2 flat fan nozzles at 40 pounds per square inch (PSI). Water was used as the diluent at 140 liters per hectare (L/ha), with weeds being 2-4 leaf stage and approximately 3 inches in height at treatment."}, "[17]": {"test_system": "Abutilon theophrasti (velvetleaf, ABUTH)", "experiment": "Greenhouse trial, % visual weed control", "assay_type": "in vivo", "conditions": "14DAA", "procedure": "as §7"}, "[18]": {"test_system": "Ambrosia artemisiifolia (common ragweed, AMBEL)", "experiment": "Greenhouse trial, % visual weed control", "assay_type": "in vivo", "conditions": "14DAA, 105 g ae/ha alone", "procedure": "as §7"}, "[19]": {"test_system": "Chenopodium album (common lambsquarter, CHEAL)", "experiment": "Greenhouse trial, % visual weed control", "assay_type": "in vivo", "conditions": "14DAA", "procedure": "as §7"}}, "note": "Several values for one entry are separate records, joined by “and”; a condition that tells them apart may be missing. Equal values may be shown once. Read-outs that look alike come from different tables or passages of the source.", "data": [{"smiles": "CNC.O=C(O)CNCP(=O)(O)O", "note": "[Glyphosate-DMA, dimethylamine salt of N-(phosphonomethyl)glycine]", "values": [{"measurement": "Mean % Weed Control", "setting": "[1]; 7DAA, 800 g ae/ha alone", "result": 43.8, "unit": "%"}, {"measurement": "Mean % Weed Control", "setting": "[1]; 18DAA, 800 g ae/ha alone", "result": 50.0, "unit": "%"}, {"measurement": "Mean % Weed Control", "setting": "[1]; 21DAA, 800 g ae/ha alone", "result": 41.3, "unit": "%"}, {"measurement": "Mean % Weed Control", "setting": "[1]; 24DAA, 480 g ae/ha alone", "result": 50.0, "unit": "%"}, {"measurement": "Mean % Weed Control", "setting": "[2]", "result": 47.5, "unit": "%"}, {"measurement": "Mean % Weed Control", "setting": "[3]; 7DAA, 840 g ae/ha alone", "result": 52.5, "unit": "%"}, {"measurement": "Mean % Weed Control", "setting": "[3]; 13DAA, 1120 g ae/ha alone", "result": 60.0, "unit": "%"}, {"measurement": "Mean % Weed Control", "setting": "[3]; 21DAA, 1120 g ae/ha alone", "result": 61.3, "unit": "%"}, {"measurement": "Mean % Weed Control", "setting": "[4]; 18DAA, 800 g ae/ha alone", "result": 47.5, "unit": "%"}, {"measurement": "Mean % Weed Control", "setting": "[4]; 21DAA, 800 g ae/ha alone", "result": 79.5, "unit": "%"}, {"measurement": "Mean % Weed Control", "setting": "[4]; 24DAA, 480 g ae/ha alone", "result": 51.7, "unit": "%"}, {"measurement": "Mean % Weed Control", "setting": "[4]; 27DAA, 800 g ae/ha alone", "result": 72.5, "unit": "%"}, {"measurement": "Mean % Weed Control", "setting": "[4]; 28DAA, 800 g ae/ha alone", "result": 77.5, "unit": "%"}, {"measurement": "Mean % Weed Control", "setting": "[5]; 12DAA", "result": 50.0, "unit": "%"}, {"measurement": "Mean % Weed Control", "setting": "[5]; 15DAA", "result": "62.5% and 43.8%"}, {"measurement": "Mean % Weed Control", "setting": "[5]; 18DAA", "result": 51.3, "unit": "%"}, {"measurement": "Mean % Weed Control", "setting": "[5]; 27DAA", "result": 70.0, "unit": "%"}, {"measurement": "Mean % Weed Control", "setting": "[5]; 28DAA", "result": 63.8, "unit": "%"}, {"measurement": "Mean % Weed Control", "setting": "[5]; 35DAA", "result": 67.5, "unit": "%"}, {"measurement": "Mean % Weed Control", "setting": "[6]", "result": 48.8, "unit": "%"}, {"measurement": "Mean % Weed Control", "setting": "[7]", "result": 68.3, "unit": "%"}, {"measurement": "Mean % Weed Control", "setting": "[8]", "result": 73.8, "unit": "%"}, {"measurement": "Mean % Weed Control", "setting": "[9]", "result": 87.0, "unit": "%"}, {"measurement": "Mean % Weed Control", "setting": "[10]", "result": 85.0, "unit": "%"}, {"measurement": "Mean % Weed Control", "setting": "[11]; 7DAA, 960 g ae/ha alone", "result": 0.0, "unit": "%"}, {"measurement": "Mean % Weed Control", "setting": "[11]; 16DAA, 480 g ae/ha alone", "result": 0.0, "unit": "%"}, {"measurement": "Mean % Weed Control", "setting": "[11]; 28DAA, 480 g ae/ha alone", "result": 0.0, "unit": "%"}, {"measurement": "Mean % Weed Control", "setting": "[11]; 28DAA, 960 g ae/ha alone", "result": 0.0, "unit": "%"}, {"measurement": "Mean % Weed Control", "setting": "[11]; 30DAA, 480 g ae/ha alone", "result": 0.0, "unit": "%"}, {"measurement": "Mean % Weed Control", "setting": "[12]", "result": 86.3, "unit": "%"}, {"measurement": "Mean % Weed Control", "setting": "[13]", "result": 53.8, "unit": "%"}, {"measurement": "Mean % Weed Control", "setting": "[14]; 10DAA, 960 g ae/ha alone", "result": 10, "unit": "%"}, {"measurement": "Mean % Weed Control", "setting": "[14]; 14DAA, 840 g ae/ha alone", "result": 67.5, "unit": "%"}, {"measurement": "Mean % Weed Control", "setting": "[14]; 15DAA, 960 g ae/ha alone", "result": 15, "unit": "%"}, {"measurement": "Mean % Weed Control", "setting": "[14]; 21DAA, 840 g ae/ha alone", "result": 68.8, "unit": "%"}, {"measurement": "Mean % Weed Control", "setting": "[14]; 28DAA, 840 g ae/ha alone", "result": 78.3, "unit": "%"}, {"measurement": "Mean % Weed Control", "setting": "[14]; 31DAA, 960 g ae/ha alone", "result": 51.7, "unit": "%"}, {"measurement": "Mean % Weed Control", "setting": "[15]; 6DAA, 360 g ae/ha alone", "result": 6.3, "unit": "%"}, {"measurement": "Mean % Weed Control", "setting": "[15]; 6DAA, 720 g ae/ha alone", "result": 5.0, "unit": "%"}, {"measurement": "Mean % Weed Control", "setting": "[15]; 6DAA, 1080 g ae/ha alone", "result": 12.5, "unit": "%"}, {"measurement": "Mean % Weed Control", "setting": "[15]; 7DAA, 800 g ae/ha alone", "result": "13.8% and 11.3%"}, {"measurement": "Mean % Weed Control", "setting": "[15]; 10DAA, 800 g ae/ha alone", "result": 41.3, "unit": "%"}, {"measurement": "Mean % Weed Control", "setting": "[15]; 20DAA, 800 g ae/ha alone", "result": 35.0, "unit": "%"}, {"measurement": "Mean % Weed Control", "setting": "[15]; 21DAA, 800 g ae/ha alone", "result": 36.3, "unit": "%"}, {"measurement": "Mean % Weed Control", "setting": "[15]; 28DAA, 800 g ae/ha alone", "result": "53.8% and 32.5% and 33.8%"}, {"measurement": "Mean % Weed Control", "setting": "[15]; 31DAA, 800 g ae/ha alone", "result": 38.8, "unit": "%"}, {"measurement": "Mean % Weed Control", "setting": "[15]; 36DAA, 800 g ae/ha alone", "result": "75.0% and 55.0%"}, {"measurement": "Mean % Weed Control", "setting": "[16]", "result": 12.5, "unit": "%"}, {"measurement": "Mean % Weed Control", "setting": "[17]; 105 g ae/ha alone", "result": 0.0, "unit": "%"}, {"measurement": "Mean % Weed Control", "setting": "[17]; 210 g ae/ha alone", "result": 3.3, "unit": "%"}, {"measurement": "Mean % Weed Control", "setting": "[17]; 420 g ae/ha alone", "result": 63.3, "unit": "%"}, {"measurement": "Mean % Weed Control", "setting": "[17]; 840 g ae/ha alone", "result": 85.0, "unit": "%"}, {"measurement": "Mean % Weed Control", "setting": "[18]", "result": 26.7, "unit": "%"}, {"measurement": "Mean % Weed Control", "setting": "[19]; 105 g ae/ha alone", "result": 0.0, "unit": "%"}, {"measurement": "Mean % Weed Control", "setting": "[19]; 210 g ae/ha alone", "result": 21.7, "unit": "%"}, {"measurement": "Mean % Weed Control", "setting": "[19]; 420 g ae/ha alone", "result": 70.0, "unit": "%"}]}]}
